Measurements from ChEMBL document CHEMBL3526047, “Excretion, metabolism, and pharmacokinetics of 1-(8-(2-chlorophenyl)-9-(4-chlorophenyl)-9H-purin-6-yl)-4-(ethylamino)piperidine-4-carboxamide, a selective cannabinoid receptor antagonist, in healthy male volunteers” (Drug Metab Dispos, 2012).

Experiments:
[1] = Drug excretion in urine of healthy obese adult male human treated with [14C]CP-945,598 at 25 mg, po administered as single dose after 0 to 384 hrs hrs by HPLC method; type: ADME, organism-based; details: in vivo
Homo sapiens [2] = experiment: Total drug excretion in healthy obese adult male human treated with [14C]CP-945,598 at 25 mg, po administered as single dose after 0 to 384 hrs hrs by HPLC method; type: ADME, organism-based; details: in vivo
Serum [3] = experiment: Drug level in serum of healthy obese adult male human treated with [14C]CP-945,598 at 25 mg, po administered as single dose after 48 hrs by HPLC method; type: ADME, organism-based; details: in vivo
Serum [4] = experiment: Drug level in serum of healthy obese adult male human treated with [14C]CP-945,598 at 25 mg, po administered as single dose after 4 hrs by HPLC method; type: ADME, organism-based; details: in vivo
Serum [5] = experiment: Drug level in serum of healthy obese adult male human treated with [14C]CP-945,598 at 25 mg, po administered as single dose after 12 hrs by HPLC method; type: ADME, organism-based; details: in vivo
Serum [6] = experiment: Drug level in serum of healthy obese adult male human treated with [14C]CP-945,598 at 25 mg, po administered as single dose after 24 hrs by HPLC method; type: ADME, organism-based; details: in vivo
Cytochrome P450 3A4 = Cytochrome P450 3A4 (Homo sapiens, UniProt P08684); experiment: Drug metabolism assessed as human recombinant CYP3A4-mediated metabolite formation after 60 mins by HPLC method; type: ADME; details: recombinant enzyme, 1 h
Cytochrome P450 3A4, sequence (P08684 whole entry): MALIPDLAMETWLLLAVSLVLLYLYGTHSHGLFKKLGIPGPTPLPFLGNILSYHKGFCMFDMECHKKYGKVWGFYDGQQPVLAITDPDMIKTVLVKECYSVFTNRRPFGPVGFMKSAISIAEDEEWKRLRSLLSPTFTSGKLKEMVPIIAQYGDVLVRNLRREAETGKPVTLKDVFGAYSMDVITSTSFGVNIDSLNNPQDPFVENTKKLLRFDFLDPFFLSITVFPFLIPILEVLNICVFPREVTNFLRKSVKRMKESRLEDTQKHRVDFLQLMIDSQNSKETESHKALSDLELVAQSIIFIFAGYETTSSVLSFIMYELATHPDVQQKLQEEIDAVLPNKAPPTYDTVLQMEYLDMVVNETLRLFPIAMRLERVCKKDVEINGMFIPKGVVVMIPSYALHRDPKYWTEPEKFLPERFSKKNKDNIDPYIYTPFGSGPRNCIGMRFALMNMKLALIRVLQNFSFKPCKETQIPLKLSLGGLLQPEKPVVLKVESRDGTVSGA

Serum [7] = experiment: Total drug level in serum of healthy obese adult male human treated with [14C]CP-945,598 at 25 mg, po administered as single dose after 48 hrs by HPLC method; type: ADME, organism-based; details: in vivo
Serum [8] = experiment: AUC in serum of healthy obese adult male human treated with [14C]CP-945,598 at 25 mg, po administered as single dose after 48 hrs by HPLC method; type: ADME, organism-based; design: time < 48 hr, dose 25 mg, route oral; details: in vivo
Homo sapiens [9] = experiment: Cmax in healthy obese adult male human assessed as total radioactivity at 25 mg, po administered as single dose; type: ADME, organism-based; design: dose 25 mg, route oral; details: in vivo
Cytochrome P450 2C19 = Cytochrome P450 2C19 (Homo sapiens, UniProt P33261); experiment: Drug metabolism assessed as human recombinant CYP2C19-mediated metabolite formation at 10 uM after 60 mins by HPLC method; type: ADME; details: recombinant enzyme, 1 h
Cytochrome P450 2C19, sequence (P33261 whole entry): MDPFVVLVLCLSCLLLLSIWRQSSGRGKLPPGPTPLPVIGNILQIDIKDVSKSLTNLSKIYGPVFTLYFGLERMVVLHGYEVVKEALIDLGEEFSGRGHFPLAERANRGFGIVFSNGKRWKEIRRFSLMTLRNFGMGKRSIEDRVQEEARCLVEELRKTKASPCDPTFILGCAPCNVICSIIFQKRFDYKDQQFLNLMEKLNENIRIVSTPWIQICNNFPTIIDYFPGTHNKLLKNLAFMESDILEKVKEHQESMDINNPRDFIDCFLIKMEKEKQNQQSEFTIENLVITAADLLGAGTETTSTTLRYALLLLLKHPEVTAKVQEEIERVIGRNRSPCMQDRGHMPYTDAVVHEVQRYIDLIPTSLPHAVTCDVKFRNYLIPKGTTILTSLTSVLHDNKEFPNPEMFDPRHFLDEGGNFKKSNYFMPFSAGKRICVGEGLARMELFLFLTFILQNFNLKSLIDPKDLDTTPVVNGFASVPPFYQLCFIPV

Serum [10] = experiment: Drug level in healthy obese adult male human serum at 25 mg, po administered as single dose after 4 hrs by HPLC method; type: ADME, organism-based; details: in vivo
Cytochrome P450 2E1 = Cytochrome P450 2E1 (Homo sapiens, UniProt P05181); experiment: Drug metabolism assessed as human recombinant CYP2E1-mediated metabolite formation at 10 uM after 60 mins by HPLC method; type: ADME; details: recombinant enzyme, 1 h
Cytochrome P450 2E1, sequence (P05181 whole entry): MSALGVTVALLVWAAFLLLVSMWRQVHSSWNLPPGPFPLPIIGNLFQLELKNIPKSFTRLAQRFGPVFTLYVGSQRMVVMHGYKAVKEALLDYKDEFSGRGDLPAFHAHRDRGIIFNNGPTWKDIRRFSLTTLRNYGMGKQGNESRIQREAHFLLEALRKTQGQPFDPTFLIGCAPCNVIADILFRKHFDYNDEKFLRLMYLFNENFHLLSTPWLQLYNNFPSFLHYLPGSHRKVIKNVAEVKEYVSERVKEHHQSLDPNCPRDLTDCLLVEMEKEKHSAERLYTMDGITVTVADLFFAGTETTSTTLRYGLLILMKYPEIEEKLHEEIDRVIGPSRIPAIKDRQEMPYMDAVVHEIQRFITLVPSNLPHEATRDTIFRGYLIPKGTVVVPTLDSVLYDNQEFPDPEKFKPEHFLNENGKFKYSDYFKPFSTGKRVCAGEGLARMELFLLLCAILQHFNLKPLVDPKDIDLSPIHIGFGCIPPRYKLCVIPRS

Cytochrome P450 2D6 = Cytochrome P450 2D6 (Homo sapiens, UniProt P10635); experiment: Drug metabolism assessed as human recombinant CYP2D6-mediated metabolite formation at 10 uM after 60 mins by HPLC method; type: ADME; details: recombinant enzyme, 1 h
Cytochrome P450 2D6, sequence (P10635 whole entry): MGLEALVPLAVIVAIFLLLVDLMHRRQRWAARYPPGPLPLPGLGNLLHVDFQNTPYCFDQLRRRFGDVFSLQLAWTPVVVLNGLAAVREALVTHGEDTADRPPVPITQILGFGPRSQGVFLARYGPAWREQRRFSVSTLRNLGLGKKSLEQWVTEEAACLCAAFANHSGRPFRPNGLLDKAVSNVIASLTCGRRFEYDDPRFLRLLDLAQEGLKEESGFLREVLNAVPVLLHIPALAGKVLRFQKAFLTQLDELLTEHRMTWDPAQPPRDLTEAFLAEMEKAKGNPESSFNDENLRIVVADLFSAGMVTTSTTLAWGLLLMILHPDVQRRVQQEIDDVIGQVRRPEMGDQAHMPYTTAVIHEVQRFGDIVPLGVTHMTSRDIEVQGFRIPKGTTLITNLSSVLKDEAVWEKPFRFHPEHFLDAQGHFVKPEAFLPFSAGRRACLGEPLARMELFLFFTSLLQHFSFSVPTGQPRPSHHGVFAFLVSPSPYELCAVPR

Canis familiaris = species on record: Canis familiaris; experiment: Drug recovery in dog; type: ADME, organism-based, Canis lupus familiaris; details: in vivo
Serum [11] = experiment: Drug level in healthy obese adult male human serum at 25 mg, po administered as single dose after 12 hrs by HPLC method; type: ADME, organism-based; details: in vivo
Cytochrome P450 2C9 = Cytochrome P450 2C9 (Homo sapiens, UniProt P11712); experiment: Drug metabolism assessed as human recombinant CYP2C9-mediated metabolite formation at 10 uM after 60 mins by HPLC method; type: ADME; details: recombinant enzyme, 1 h
Cytochrome P450 2C9, sequence (P11712 whole entry): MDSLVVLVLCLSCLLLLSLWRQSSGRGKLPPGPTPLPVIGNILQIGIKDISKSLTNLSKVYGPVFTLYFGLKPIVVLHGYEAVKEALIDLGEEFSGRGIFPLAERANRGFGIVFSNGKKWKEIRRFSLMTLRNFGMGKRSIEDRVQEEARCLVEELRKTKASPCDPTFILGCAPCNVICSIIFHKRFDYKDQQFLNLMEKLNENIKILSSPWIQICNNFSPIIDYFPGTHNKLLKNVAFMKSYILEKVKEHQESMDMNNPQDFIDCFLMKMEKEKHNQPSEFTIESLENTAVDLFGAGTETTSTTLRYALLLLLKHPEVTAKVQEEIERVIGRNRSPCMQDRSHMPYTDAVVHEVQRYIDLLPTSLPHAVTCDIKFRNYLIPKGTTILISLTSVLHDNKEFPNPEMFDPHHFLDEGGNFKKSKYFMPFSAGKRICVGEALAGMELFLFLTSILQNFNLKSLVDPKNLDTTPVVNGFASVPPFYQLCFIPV

Cytochrome P450 1A1 = molecular target: T1, Cytochrome P450 1A1 (Homo sapiens, UniProt P04798); experiment: Drug metabolism assessed as human recombinant CYP1A1-mediated metabolite formation at 10 uM after 60 mins by HPLC method; type: ADME; details: recombinant enzyme, 1 h
T1 sequence (P04798 whole entry): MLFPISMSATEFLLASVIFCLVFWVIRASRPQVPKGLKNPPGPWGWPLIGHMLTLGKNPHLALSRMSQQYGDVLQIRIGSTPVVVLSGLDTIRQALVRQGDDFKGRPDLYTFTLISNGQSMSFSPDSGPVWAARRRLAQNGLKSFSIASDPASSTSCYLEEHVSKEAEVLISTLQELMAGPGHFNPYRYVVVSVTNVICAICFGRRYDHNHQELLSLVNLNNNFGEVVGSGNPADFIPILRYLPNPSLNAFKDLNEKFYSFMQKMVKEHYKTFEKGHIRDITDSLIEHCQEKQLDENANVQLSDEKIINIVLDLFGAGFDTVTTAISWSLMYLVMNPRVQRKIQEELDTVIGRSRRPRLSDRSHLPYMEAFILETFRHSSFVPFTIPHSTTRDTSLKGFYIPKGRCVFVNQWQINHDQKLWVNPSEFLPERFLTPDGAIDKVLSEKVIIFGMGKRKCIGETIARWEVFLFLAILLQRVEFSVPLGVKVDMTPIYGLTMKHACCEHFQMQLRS

Homo sapiens [12] = experiment: Terminal elimination half life in healthy obese adult male human assessed as total radioactivity at 25 mg, po administered as single dose; type: ADME, organism-based; details: in vivo
Serum [13] = experiment: Drug level in healthy obese adult male human serum at 25 mg, po administered as single dose after 48 hrs by HPLC method; type: ADME, organism-based; details: in vivo
Serum [14] = experiment: Total drug level in healthy obese adult male human serum at 25 mg, po administered as single dose after 48 hrs by HPLC method; type: ADME, organism-based; details: in vivo
Homo sapiens [15] = experiment: AUC (0 to infinity) in healthy obese adult male human assessed as total radioactivity at 25 mg, po administered as single dose; type: ADME, organism-based, Plasma; design: dose 25 mg, time infinity, route oral; details: in vivo
Homo sapiens [16] = experiment: AUC (0 to last) in healthy obese adult male human assessed as total radioactivity at 25 mg, po administered as single dose; type: ADME, organism-based, Plasma; details: in vivo
Mus musculus = species on record: Mus musculus; experiment: Drug recovery in mouse; type: ADME, organism-based; details: in vivo
Cytochrome P450 2C8 = molecular target: T2, Cytochrome P450 2C8 (Homo sapiens, UniProt P10632); experiment: Drug metabolism assessed as human recombinant CYP2C8-mediated metabolite formation at 10 uM after 60 mins by HPLC method; type: ADME; details: recombinant enzyme, 1 h
T2 sequence (P10632 whole entry): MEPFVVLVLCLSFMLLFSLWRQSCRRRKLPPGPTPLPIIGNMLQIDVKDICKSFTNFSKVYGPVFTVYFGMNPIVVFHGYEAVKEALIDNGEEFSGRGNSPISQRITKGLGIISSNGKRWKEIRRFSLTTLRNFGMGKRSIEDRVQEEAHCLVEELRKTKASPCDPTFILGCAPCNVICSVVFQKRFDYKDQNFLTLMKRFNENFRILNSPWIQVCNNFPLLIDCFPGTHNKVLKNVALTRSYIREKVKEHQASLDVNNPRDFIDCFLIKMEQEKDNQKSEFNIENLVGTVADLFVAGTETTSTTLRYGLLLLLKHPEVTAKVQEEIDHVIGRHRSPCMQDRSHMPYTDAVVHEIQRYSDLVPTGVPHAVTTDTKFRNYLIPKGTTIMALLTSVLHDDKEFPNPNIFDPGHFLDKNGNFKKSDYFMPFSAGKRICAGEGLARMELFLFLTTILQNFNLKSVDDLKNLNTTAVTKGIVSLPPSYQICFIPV

Serum [17] = experiment: AUC in healthy obese adult male human serum at 25 mg, po administered as single dose after 48 hrs by HPLC method; type: ADME, organism-based, Plasma; design: time < 48 hr, dose 25 mg, route oral; details: in vivo
Rattus norvegicus = species on record: Rattus norvegicus; experiment: Drug recovery in rat; type: ADME, organism-based; details: in vivo
Homo sapiens [18] = experiment: Tmax in healthy obese adult male human assessed as total radioactivity at 25 mg, po administered as single dose; type: ADME, organism-based; details: in vivo
Serum [19] = experiment: Drug level in healthy obese adult male human serum at 25 mg, po administered as single dose after 24 hrs by HPLC method; type: ADME, organism-based; details: in vivo
Cytochrome P450 1A2 = molecular target: T3, Cytochrome P450 1A2 (Homo sapiens, UniProt P05177); experiment: Drug metabolism assessed as human recombinant CYP1A2-mediated metabolite formation at 10 uM after 60 mins by HPLC method; type: ADME; details: recombinant enzyme, 1 h
T3 sequence (P05177 whole entry): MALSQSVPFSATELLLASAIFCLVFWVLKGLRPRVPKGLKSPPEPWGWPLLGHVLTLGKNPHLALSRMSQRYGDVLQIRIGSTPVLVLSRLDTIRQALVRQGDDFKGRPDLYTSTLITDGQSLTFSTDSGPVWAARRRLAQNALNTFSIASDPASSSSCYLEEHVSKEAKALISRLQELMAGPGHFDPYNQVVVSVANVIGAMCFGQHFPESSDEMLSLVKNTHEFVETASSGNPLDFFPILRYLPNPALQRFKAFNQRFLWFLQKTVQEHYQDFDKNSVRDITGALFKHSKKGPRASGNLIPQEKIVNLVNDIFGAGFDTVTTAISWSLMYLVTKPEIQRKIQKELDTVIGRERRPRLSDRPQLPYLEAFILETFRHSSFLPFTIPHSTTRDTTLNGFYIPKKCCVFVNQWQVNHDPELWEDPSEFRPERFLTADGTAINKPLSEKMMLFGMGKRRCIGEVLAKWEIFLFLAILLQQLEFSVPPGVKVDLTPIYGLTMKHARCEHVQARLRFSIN

[20] = Bioavailability in dog; type: ADME, organism-based, Canis lupus familiaris; details: in vivo
[21] = Bioavailability in rat; type: ADME, organism-based; details: in vivo
[22] = Terminal phase half life in human; type: ADME, organism-based; details: in vivo, read-out: beta t1/2 (converted)
Homo sapiens [23] = experiment: AUC (0 to infinity) in healthy obese adult male human at 25 mg, po administered as single dose; type: ADME, organism-based, Plasma; design: dose 25 mg, route oral, time infinity; details: in vivo
[24] = Cmax in healthy obese adult male human at 25 mg, po administered as single dose; type: ADME, organism-based; design: dose 25 mg, route oral; details: in vivo
[25] = Tmax in healthy obese adult male human at 25 mg, po administered as single dose; type: ADME, organism-based; details: in vivo
[26] = Terminal elimination half life in healthy obese adult male human at 25 mg, po administered as single dose; type: ADME, organism-based; details: in vivo, read-out: beta t1/2 (converted)
Homo sapiens [27] = experiment: AUC (0 to last) in healthy obese adult male human at 25 mg, po administered as single dose; type: ADME, organism-based, Plasma; design: dose 25 mg, time 0 - last, route oral; details: in vivo
[28] = Tmax in human; type: ADME, organism-based; details: in vivo

## NC(=O)C1(NO[C@@H]2O[C@H](CO)[C@@H](O)[C@H](O)[C@H]2O)CCN(c2ncnc3c2nc(-c2ccccc2Cl)n3-c2ccc(Cl)cc2)CC1
[1]
  Drug excretion: 4.8%
Homo sapiens [2]
  Drug excretion: 4.8%

## ON=C1CCN(c2ncnc3c2nc(-c2ccccc2Cl)n3-c2ccc(Cl)cc2)CC1
Serum [3]
  Drug uptake: 6 ngequiv/g
Serum [4]
  Drug uptake: 10.1 ngequiv/g
Serum [5]
  Drug uptake: 10.9 ngequiv/g
Serum [6]
  Drug uptake: 10.9 ngequiv/g
Cytochrome P450 3A4
  Drug metabolism: 13%
Serum [7]
  Drug uptake: 17.9 ngequiv/g
Serum [8]
  AUC: 438 ngequiv.hr/g

## CCNC1(C(N)=O)CCN(c2ncnc3c2n[14c](-c2ccccc2Cl)n3-c2ccc(Cl)cc2)CC1.Cl
Homo sapiens [9]
  Cmax: 74 ngequiv/g
Cytochrome P450 2C19
  Drug metabolism: metabolite_not_detected
Serum [10]
  Drug uptake: 11.5 ngequiv/g
Cytochrome P450 2E1
  Drug metabolism: metabolite_not_detected
Cytochrome P450 2D6
  Drug metabolism: metabolite_not_detected
Canis familiaris
  Drug recovery: 99%
Serum [11]
  Drug uptake: 8 ngequiv/g
Cytochrome P450 2C9
  Drug metabolism: metabolite_not_detected
Cytochrome P450 1A1
  Drug metabolism: metabolite_not_detected
Homo sapiens [12]
  beta t1/2: 190 h
Serum [13]
  Drug uptake: 2.7 ngequiv/g
Serum [14]
  Drug uptake: 12.1 ngequiv/g
Homo sapiens [15]
  AUC: 9434 ng/h/mL
Homo sapiens [16]
  AUClast: 8298 ngequiv.hr/g
Mus musculus
  Drug recovery: 98%
Cytochrome P450 2C8
  Drug metabolism: metabolite_not_detected
Serum [17]
  AUC: 297 ngequiv.hr/g
Rattus norvegicus
  Drug recovery: 98%
Homo sapiens [18]
  Tmax: 6 h
Serum [19]
  Drug uptake: 6.4 ngequiv/g
Cytochrome P450 1A2
  Drug metabolism: metabolite_not_detected

## CCNC1(C(N)=O)CCN(c2ncnc3c2nc(-c2ccccc2Cl)n3-c2ccc(Cl)cc2)CC1.Cl [OTENABANT HYDROCHLORIDE]
[20]
  bioavailability: 32%
[21]
  bioavailability: 32%
[22]
  half-life: 4.46 days
Homo sapiens [23]
  AUC: 864 ng·h/mL
[24]
  Cmax: 14 ng/mL
[25]
  Tmax: 6 h
[26]
  half-life: 6.62 days
Homo sapiens [27]
  AUClast: 778 ng·h/mL
[28]
  Tmax: 4 h
